Here are results for 3 compounds from ChEMBL document CHEMBL5653631, “A Potent and Selective ULK1 Inhibitor Suppresses Autophagy and Sensitizes Cancer Cells to Nutrient Stress” (iScience, 2018).

The target in experiment [1] is T1, Homeodomain-interacting protein kinase 4 (Homo sapiens) (UniProt Q8NE63).
T1 sequence (whole entry): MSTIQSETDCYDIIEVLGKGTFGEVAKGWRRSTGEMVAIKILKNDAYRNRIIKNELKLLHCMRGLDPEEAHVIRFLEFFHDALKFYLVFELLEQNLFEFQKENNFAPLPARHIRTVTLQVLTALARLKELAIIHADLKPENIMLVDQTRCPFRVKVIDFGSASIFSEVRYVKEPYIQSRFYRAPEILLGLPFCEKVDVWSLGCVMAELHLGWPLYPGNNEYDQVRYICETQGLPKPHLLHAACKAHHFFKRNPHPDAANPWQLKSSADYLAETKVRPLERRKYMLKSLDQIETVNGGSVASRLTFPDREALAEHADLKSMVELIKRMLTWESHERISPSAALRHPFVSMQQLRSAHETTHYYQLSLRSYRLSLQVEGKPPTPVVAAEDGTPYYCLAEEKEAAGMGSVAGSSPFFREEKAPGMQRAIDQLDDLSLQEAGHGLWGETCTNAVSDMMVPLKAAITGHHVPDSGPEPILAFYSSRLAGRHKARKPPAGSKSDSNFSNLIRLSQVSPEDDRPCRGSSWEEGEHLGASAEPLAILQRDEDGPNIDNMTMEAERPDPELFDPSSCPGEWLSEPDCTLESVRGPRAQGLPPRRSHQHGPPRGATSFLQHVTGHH
The experiment can be described thus: Inhibition of human recombinant HIPK4 at 40 nM related to control ULK1.

The target of experiment [2] is T2, Serine/threonine-protein kinase BRSK2 (Homo sapiens) (UniProt Q8IWQ3).
T2 sequence (whole entry): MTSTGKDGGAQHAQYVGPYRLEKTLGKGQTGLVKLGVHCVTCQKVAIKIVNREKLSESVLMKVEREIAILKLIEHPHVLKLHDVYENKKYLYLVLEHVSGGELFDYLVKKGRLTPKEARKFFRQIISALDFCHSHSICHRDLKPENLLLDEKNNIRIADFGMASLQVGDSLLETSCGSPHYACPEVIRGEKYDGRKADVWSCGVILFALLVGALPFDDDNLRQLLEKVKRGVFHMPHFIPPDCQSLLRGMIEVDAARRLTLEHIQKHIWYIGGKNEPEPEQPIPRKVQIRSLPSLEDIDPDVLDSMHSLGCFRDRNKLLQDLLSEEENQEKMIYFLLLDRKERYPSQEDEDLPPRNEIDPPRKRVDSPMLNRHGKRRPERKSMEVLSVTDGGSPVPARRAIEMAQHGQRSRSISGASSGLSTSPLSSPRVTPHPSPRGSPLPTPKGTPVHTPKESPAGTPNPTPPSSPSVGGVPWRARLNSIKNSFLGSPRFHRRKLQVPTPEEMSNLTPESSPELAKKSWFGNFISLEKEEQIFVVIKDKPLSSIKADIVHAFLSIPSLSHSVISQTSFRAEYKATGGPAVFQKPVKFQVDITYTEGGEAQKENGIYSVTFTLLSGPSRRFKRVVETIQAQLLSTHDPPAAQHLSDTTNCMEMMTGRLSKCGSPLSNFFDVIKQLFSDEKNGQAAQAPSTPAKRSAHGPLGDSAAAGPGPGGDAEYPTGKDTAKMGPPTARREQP
Description: Inhibition of human recombinant BRSK2 at 40 nM related to control ULK1.

Experiment [3] concerns the target Dual specificity tyrosine-phosphorylation-regulated kinase 1A (Homo sapiens) (UniProt Q13627). Description: Inhibition of human recombinant DYRK1A at 40 nM related to control ULK1.
In experiment [4] the target is Serine/threonine-protein kinase MRCK alpha (Homo sapiens) (UniProt Q5VT25). Description: Inhibition of human recombinant MRCKa at 40 nM related to control ULK1.
The target is the same in experiment [5]. The experiment can be described thus: Inhibition of human recombinant MRCKa at 40 nM in presence of ATP by radiometric assay relative to control.
Experiment [6] has as its target Serine/threonine-protein kinase WNK2 (Homo sapiens) (UniProt Q9Y3S1). The experiment can be described thus: Inhibition of human recombinant Wnk2 at 40 nM in presence of ATP by radiometric assay relative to control.
Experiment [7] deals with Insulin receptor-related protein (Homo sapiens) (UniProt P14616). Description: Inhibition of human recombinant IRR at 500 nM in presence of ATP by radiometric assay relative to control.
Experiment [8] deals with T3, Tyrosine-protein kinase receptor TYRO3 (Homo sapiens) (UniProt Q06418).
T3 sequence (whole entry): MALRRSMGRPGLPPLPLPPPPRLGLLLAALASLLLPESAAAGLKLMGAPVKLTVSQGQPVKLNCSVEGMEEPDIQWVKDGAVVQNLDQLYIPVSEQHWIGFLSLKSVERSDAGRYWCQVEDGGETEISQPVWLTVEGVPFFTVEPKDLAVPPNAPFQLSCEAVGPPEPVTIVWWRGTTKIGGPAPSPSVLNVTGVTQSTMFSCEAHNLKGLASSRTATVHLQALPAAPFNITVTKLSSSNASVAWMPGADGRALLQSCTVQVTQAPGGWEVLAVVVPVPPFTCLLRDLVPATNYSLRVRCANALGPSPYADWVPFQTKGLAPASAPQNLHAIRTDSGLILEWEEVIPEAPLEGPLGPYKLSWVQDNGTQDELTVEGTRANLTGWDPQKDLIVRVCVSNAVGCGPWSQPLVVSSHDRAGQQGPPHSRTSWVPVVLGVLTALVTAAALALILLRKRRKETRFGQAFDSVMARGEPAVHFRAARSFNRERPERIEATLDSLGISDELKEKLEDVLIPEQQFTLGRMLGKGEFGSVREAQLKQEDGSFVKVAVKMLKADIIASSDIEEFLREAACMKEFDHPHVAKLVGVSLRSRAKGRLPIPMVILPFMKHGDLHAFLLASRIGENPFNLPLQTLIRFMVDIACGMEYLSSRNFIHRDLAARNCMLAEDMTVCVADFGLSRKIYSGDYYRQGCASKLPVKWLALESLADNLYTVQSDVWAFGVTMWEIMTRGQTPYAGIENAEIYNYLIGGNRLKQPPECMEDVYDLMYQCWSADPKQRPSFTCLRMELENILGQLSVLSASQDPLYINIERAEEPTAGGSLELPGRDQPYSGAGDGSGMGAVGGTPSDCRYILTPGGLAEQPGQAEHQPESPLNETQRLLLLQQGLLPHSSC
Description: Inhibition of human recombinant TYRO3 at 15 nM related to control ULK1.

In experiment [9] the target is Casein kinase II subunit alpha (Homo sapiens) (UniProt P68400). The experiment can be described thus: Inhibition of human recombinant CK2a1 at 15 nM in presence of ATP by radiometric assay relative to control.
Experiment [10] concerns the target Cyclin-dependent kinase-like 3 (Homo sapiens) (UniProt Q8IVW4). The experiment can be described thus: Inhibition of human recombinant CDKL3 at 15 nM related to control ULK1.
The target of experiment [11] is Dual specificity mitogen-activated protein kinase kinase 2 (Homo sapiens) (UniProt P36507). Description: Inhibition of human recombinant MAP2K2 at 15 nM related to control ULK1.
Chain of Dual specificity mitogen-activated protein kinase kinase 2 (Homo sapiens) (P36507 whole entry): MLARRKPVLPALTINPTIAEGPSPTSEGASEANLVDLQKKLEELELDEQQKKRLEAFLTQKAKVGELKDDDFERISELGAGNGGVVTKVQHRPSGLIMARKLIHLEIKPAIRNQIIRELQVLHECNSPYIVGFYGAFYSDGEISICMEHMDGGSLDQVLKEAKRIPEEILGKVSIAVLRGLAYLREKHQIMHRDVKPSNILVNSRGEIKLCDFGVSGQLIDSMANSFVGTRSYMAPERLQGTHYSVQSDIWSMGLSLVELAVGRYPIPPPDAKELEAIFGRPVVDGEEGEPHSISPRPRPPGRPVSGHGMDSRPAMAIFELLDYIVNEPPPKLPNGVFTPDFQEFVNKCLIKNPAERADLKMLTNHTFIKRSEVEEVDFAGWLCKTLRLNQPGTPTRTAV

Chain of Serine/threonine-protein kinase MRCK alpha (Homo sapiens) (Q5VT25 whole entry): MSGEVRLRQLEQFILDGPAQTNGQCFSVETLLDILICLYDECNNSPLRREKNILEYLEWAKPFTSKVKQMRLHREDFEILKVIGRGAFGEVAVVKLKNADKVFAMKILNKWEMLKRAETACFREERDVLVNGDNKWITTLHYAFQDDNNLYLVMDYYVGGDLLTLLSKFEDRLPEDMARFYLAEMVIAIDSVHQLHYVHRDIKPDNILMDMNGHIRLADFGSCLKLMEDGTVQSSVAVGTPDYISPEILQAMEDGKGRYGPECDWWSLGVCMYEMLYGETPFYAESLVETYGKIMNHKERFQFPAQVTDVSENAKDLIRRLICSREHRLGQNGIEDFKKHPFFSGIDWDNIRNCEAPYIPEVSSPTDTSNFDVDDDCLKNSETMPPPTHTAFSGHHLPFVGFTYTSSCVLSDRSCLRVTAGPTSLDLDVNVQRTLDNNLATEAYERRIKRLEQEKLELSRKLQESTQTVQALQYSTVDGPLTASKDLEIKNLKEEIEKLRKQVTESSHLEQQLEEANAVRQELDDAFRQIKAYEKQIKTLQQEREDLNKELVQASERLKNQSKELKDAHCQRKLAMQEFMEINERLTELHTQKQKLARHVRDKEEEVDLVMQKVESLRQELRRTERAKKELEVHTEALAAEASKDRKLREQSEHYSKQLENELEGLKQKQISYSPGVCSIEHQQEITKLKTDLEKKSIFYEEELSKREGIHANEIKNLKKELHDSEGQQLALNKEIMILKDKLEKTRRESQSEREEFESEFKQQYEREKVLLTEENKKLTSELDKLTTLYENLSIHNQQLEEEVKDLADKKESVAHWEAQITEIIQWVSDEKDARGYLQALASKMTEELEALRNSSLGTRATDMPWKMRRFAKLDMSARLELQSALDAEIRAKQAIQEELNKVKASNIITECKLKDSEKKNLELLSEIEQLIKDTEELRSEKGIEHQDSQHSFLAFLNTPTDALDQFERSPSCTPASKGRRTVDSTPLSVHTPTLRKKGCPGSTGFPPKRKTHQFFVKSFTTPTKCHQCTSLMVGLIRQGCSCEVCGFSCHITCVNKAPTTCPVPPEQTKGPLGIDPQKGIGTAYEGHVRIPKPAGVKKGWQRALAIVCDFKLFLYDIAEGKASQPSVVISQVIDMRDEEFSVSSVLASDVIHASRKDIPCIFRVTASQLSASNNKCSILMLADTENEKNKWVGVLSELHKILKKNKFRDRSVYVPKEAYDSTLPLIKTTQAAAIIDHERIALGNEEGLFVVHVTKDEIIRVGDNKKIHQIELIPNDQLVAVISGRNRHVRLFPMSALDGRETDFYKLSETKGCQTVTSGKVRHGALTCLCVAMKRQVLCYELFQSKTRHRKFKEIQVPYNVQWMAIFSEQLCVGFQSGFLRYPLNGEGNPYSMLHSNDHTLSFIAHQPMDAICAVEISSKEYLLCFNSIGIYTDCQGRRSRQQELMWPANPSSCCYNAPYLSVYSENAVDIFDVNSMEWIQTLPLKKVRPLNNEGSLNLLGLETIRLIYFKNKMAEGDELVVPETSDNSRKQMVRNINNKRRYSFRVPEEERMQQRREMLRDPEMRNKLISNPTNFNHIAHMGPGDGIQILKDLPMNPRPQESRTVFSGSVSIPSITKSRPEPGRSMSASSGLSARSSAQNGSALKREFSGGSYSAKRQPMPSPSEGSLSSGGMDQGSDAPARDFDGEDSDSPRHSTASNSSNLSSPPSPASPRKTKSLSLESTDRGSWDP
Chain of Serine/threonine-protein kinase WNK2 (Homo sapiens) (Q9Y3S1 whole entry): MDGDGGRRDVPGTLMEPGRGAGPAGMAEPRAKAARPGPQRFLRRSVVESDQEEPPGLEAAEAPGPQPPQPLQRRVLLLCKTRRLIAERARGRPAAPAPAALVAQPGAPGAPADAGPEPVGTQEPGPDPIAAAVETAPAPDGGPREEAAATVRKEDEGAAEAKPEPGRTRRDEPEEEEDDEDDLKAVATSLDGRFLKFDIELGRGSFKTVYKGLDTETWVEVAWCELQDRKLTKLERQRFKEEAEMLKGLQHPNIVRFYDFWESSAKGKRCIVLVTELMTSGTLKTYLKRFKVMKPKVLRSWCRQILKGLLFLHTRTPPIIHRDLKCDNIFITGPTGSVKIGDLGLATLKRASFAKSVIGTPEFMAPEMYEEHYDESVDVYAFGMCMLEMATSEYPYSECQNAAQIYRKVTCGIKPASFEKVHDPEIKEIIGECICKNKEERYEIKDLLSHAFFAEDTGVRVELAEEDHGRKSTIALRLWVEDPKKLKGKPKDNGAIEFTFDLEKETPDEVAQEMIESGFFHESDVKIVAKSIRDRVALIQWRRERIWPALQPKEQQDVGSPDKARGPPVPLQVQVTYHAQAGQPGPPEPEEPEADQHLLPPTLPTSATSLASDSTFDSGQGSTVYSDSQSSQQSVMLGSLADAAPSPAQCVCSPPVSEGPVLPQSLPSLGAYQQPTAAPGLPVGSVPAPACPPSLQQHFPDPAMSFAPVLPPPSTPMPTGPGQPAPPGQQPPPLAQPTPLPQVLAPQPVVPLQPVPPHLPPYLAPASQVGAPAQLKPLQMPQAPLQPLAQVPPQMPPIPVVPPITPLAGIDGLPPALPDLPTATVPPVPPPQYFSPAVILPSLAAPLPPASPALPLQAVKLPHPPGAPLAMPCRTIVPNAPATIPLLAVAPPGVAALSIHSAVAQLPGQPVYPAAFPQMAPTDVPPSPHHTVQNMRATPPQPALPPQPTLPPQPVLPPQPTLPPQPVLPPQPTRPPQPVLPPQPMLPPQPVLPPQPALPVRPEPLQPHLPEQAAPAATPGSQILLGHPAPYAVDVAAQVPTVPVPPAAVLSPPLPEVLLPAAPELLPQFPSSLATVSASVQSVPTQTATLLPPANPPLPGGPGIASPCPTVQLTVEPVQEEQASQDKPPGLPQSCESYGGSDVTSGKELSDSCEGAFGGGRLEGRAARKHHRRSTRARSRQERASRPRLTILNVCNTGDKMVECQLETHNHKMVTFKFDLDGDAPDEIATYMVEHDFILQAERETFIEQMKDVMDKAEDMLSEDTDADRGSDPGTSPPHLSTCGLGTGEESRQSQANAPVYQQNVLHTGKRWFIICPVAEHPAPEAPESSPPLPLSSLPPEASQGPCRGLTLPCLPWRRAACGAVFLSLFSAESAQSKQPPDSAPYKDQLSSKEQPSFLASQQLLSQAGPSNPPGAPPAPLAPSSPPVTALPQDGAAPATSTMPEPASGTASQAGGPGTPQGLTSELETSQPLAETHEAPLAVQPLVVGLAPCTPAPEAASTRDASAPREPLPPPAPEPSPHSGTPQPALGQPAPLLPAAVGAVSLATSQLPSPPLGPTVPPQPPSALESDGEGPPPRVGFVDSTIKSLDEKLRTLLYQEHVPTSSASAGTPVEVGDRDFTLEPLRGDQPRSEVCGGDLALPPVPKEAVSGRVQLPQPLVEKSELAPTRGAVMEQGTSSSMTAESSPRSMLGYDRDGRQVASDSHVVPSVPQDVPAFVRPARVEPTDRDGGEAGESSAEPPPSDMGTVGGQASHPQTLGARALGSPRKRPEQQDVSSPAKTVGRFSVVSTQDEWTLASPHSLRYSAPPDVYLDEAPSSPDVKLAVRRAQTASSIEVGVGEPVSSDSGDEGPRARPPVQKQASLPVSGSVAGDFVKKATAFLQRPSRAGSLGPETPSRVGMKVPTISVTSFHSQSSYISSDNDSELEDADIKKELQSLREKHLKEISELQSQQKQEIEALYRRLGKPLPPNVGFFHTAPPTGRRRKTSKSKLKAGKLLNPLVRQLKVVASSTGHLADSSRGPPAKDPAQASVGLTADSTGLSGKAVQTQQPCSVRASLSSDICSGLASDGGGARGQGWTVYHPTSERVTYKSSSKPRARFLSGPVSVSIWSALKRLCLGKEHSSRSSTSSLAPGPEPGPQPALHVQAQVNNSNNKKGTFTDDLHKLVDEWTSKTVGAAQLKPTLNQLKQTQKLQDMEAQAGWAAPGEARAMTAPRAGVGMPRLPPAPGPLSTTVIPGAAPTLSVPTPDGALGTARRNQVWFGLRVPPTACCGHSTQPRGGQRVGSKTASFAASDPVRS
Chain of Casein kinase II subunit alpha (Homo sapiens) (P68400 whole entry, looked up): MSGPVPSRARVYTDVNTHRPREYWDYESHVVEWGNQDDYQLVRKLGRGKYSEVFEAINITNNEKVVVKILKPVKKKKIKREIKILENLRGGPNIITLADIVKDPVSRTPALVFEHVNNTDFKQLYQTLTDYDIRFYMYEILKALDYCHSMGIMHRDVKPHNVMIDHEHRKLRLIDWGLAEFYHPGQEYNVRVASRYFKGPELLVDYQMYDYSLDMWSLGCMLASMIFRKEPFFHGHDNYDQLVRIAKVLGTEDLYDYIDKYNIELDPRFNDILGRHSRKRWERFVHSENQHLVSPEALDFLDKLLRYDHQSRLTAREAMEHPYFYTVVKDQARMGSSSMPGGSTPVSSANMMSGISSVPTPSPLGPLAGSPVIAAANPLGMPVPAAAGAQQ

Turning to `O=C(N[C@@H](C1CC1)C(F)(F)F)c1cc(-c2cnn3cc(-c4ccc(F)cc4)cnc23)cs1`, the fold change (FC) in [1] is 0; in experiment [2] it was 0; in [3], 0.59; in experiment [4], 0.03. The inhibition (in general, the relative decrease from the control value, in per cent) is 2% in experiment [5] and 3% in experiment [6].
Regarding `CNC(=O)c1ccccc1Oc1nc(Nc2cc(OC)c(OC)c(OC)c2)ncc1Br`, in experiment [7], the inhibition was 9%.
Turning to `CC(C)[C@H](NC(=O)c1cc(-c2cnn3cc(-c4ccc(OCCN5CCCCC5)cc4)cnc23)cs1)C(F)(F)F`, the fold change (FC) was found to be 0 in [8], 0.39 in [10] and 0 in [11]. In [9], the inhibition turned out to be 0%.
